Measured values reported in patent US11873303B2, “Substituted pyrazoles as type II IRAK inhibitors” (Merck Patent GmbH, priority 2018, dated 2024).

Tests used:
[1] = molecular target: T1, IRAK1 (human purified recombinant enzyme His-TEV-IRAK1 (194-712)) (Homo sapiens, UniProt P51617); test: IRAK1 enzymatic assay (ADP-Glo luminescence); assay type: biochemical; details: human recombinant IRAK1, ATP 1 μM
T1 construct: His-TEV-IRAK1 (194-712); His (N); TEV cleavage site (N)
Experimental: IRAK1 is a human purified recombinant enzyme (His-TEV-IRAK1 (194-712)). In this assay, IRAK1 hydrolysed ATP and autophosphorylated. Measurement of IRAK-1 inhibition was performed in 384-well format based on luminescence assay (ADP-Glo™ Kinase Assay from Promega). Purified human recombinant IRAK1 (0.3 μg/ml) and serial diluted compounds in DMSO (range of concentration from 10 μM to 0.5 nM) or controls (1% DMSO) were incubated for 15 minutes at RT in assay buffer containing 50 mM Hepes pH 7.0, Fatty acid-free BSA 0.1%, Dithiothreitol (DTT) 2 mM, MgCl2 10 mM, EGTA 0.5 mM, Triton X-100 0.01%. The kinase reaction was then initiated by the addition of ATP at a concentration of 1 μM. After 2 hours of incubation at RT, the reaction was stopped and the unconsumed ATP depleted by the addition of ADP-Glo™ Reagent according to supplier instructions. After 40 minutes of incubation at RT, the Kinase Detection Reagent was then added to the assay plate according to supplier instructions. After 20 minutes of incubation at RT, the luminescence signal was measured with a luminometer (PerkinElmer Envision or equivalent reader).

[2] = molecular target: T2, IRAK4 (human purified recombinant enzyme His-TEV-IRAK4 (1-460)) (Homo sapiens, UniProt Q9NWZ3); test: IRAK4 enzymatic assay (ADP-Glo luminescence); assay type: biochemical; details: human recombinant IRAK4, ATP 2 μM, STK1-biotin peptide
T2 construct: His-TEV-IRAK4 (1-460); His (N); TEV cleavage site (N)
T2 sequence (Q9NWZ3 1-460): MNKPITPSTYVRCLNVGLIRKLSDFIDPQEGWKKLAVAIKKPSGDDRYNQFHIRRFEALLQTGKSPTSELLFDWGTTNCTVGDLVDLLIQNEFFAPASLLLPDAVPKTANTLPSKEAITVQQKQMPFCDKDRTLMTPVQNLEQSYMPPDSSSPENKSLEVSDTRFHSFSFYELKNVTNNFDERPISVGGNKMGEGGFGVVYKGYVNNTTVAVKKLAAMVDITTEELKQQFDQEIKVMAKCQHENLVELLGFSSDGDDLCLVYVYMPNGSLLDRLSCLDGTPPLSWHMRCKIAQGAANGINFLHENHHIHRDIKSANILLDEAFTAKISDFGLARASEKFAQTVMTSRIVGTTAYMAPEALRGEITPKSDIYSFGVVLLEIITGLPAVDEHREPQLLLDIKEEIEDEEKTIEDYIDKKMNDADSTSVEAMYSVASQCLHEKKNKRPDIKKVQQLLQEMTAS
Experimental: IRAK4 is a human purified recombinant enzyme (His-TEV-IRAK4 (1-460)). In this assay, IRAK4 hydrolysed ATP, autophosphorylated and phosphorylated a Serine/Threonine generic peptidic substrate (STK: 61ST1BLC from CisBio International). Measurement of IRAK-4 inhibition was performed in 384-well format based on a luminescence assay (ADP-Glo™ Kinase Assay from Promega). Purified human recombinant IRAK4 (0.3 μg/ml) and serial diluted compounds in DMSO (range of concentration from 10 μM to 0.5 nM) or controls (1% DMSO) were incubated for 15 minutes at RT in assay buffer containing 50 mM Hepes pH 7.0, Fatty acid-free BSA 0.1%, Dithiothreitol (DTT) 2 mM, MgCl2 10 mM, EGTA 0.5 mM, Triton X-100 0.01%, MnCl2 5 mM. The kinase reaction was then initiated by the addition of ATP (2 μM) and the peptidic substrate STK1-biotin peptide (300 nM). After 2 hours of incubation at RT, the reaction was stopped and the unconsumed ATP depleted by the addition of ADP-Glo™ Reagent according to supplier instructions. After 40 minutes of incubation at RT, the Kinase Detection Reagent was then added to the assay plate according to supplier instructions. After 20 minutes of incubation at RT, the luminescence signal was measured with a plate-reading luminometer (PerkinElmer Envision or equivalent reader).

[3] = tested on: TLR7 induced IL-6 secretion in human mononuclear cells (PBMC's); test: TLR7 induced IL-6 in human PBMC's; assay type: cell-based; details: TLR7 ligand 2 uM overnight, IL-6 AlphaLISA
Experimental: TLR7 Induced IL-6 in Human PBMC's
Human PBMC assay was used as one of the functional assays to monitor the activity of IRAK1 and IRAK4 small molecule inhibitors on TLR7 induced IL-6 secretion in human mononuclear cells (PBMC's). Human PBMCs were prepared from buffy coats (whole blood enriched with leukocytes and platelets) obtained from healthy volunteers used either fresh or frozen were plated in assay media (RPMI+2% P/S/L-glu+10% HI-FBS) and pre-treated with compounds in DMSO/media (range of concentrations from 25 uM to 0.4 nM) or controls (0.25% DMSO) for 30 minutes at 37° C. in assay media. Following pre-treatment with IRAK1 and IRAK4 inhibitors, PBMC's were stimulated with TLR7 specific ligand (2 uM) overnight (16-18 hrs) at 37° C. After incubation supernatant was transferred to 384 well PE AlphaPlate-384 and IL-6 was quantified using Perkin Elmer IL-6 Alpha LISA kit (AL223C). Plates were read on an Envision® plate reader with Alpha Technology®.

T1 sequence (P51617 194-712): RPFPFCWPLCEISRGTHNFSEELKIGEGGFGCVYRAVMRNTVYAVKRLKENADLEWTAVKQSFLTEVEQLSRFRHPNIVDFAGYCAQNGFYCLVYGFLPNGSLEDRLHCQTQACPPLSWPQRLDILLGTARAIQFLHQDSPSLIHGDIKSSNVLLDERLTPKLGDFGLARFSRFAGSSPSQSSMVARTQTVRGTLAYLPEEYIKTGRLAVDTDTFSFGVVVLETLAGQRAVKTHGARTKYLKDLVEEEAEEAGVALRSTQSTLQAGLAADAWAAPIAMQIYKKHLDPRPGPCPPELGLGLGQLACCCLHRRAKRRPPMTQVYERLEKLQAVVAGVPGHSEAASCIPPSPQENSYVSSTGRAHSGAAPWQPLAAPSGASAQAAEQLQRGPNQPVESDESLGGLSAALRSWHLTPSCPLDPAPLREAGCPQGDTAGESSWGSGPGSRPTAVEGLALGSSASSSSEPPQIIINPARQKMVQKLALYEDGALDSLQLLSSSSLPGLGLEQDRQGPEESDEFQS

## CC(C)c1ccc(-n2nc(C(C)(C)C)cc2NC(=O)Nc2ccc(-c3nn(C)c4ncnc(N)c34)cc2)cc1 [Example 1, 1-(4-{4-amino-1-methyl-1H-pyrazolo[3,4-d]pyrimidin-3-yl}phenyl)-3-{3-tert-butyl-1-[4-(propan-2-yl)phenyl]-1H-pyrazol-5-yl}urea]
[1]
  IC50: < 100 nM
[2]
  IC50: 100 to 1000 nM
[3]
  IC50: < 100 nM

## Cc1ccc(-n2nc(C(C)(C)CO)cc2NC(=O)Nc2ccc(-c3csc4ncnc(N)c34)cc2Cl)cc1 [Example 21, 1-(4-{4-aminothieno[2,3-d]pyrimidin-5-yl}-2-chlorophenyl)-3-[3-(1-hydroxy-2-methylpropan-2-yl)-1-(4-methylphenyl)-1H-pyrazol-5-yl]urea]
[1]
  IC50: 100 to 1000 nM
[2]
  IC50: > 5000 nM
[3]
  IC50: > 5000 nM

## Cc1ccc(-n2nc(C(C)(C)C)cc2NC(=O)Nc2ccc(-c3nn(C)c4ncnc(N)c34)cc2Cl)cc1F [Example 29, 1-[4-(4-Amino-1-methyl-1H-pyrazolo[3,4-d]pyrimidin-3-yl)-2-chloro-phenyl]-3-[5-tert-butyl-2-(3-fluoro-4-methyl-phenyl)-2H-pyrazol-3-yl]-urea]
[1]
  IC50: < 100 nM
[2]
  IC50: 100 to 1000 nM

## Cc1ccc(-n2nc(C(C)(C)C)cc2NC(=O)Nc2ccc(-c3csc4ncnc(N)c34)c(F)c2Cl)cc1 [Example 23, 1-[4-(4-Amino-thieno[2,3-d]pyrimidin-5-yl)-2-chloro-3-fluoro-phenyl]-3-(5-tert-butyl-2-p-tolyl-2H-pyrazol-3-yl)-urea]
[1]
  IC50: < 100 nM
[2]
  IC50: 1000 to 5000 nM
[3]
  IC50: < 100 nM

## Cc1ccc(-n2nc(C(C)(C)C)cc2NC(=O)Nc2ccc(-c3nn(C)c4ccnc(N)c34)cc2F)cc1 [Example 26, 1-[4-(4-Amino-1-methyl-1H-pyrazolo[4,3-c]pyridin-3-yl)-2-fluoro-phenyl]-3-(5-tert-butyl-2-p-tolyl-2H-pyrazol-3-yl)-urea]
[1]
  IC50: < 100 nM
[2]
  IC50: 100 to 1000 nM
[3]
  IC50: < 100 nM

## Cc1ccc(-n2nc(C(C)(C)C)cc2NC(=O)Nc2ccc(-c3nn(C)c4ncnc(N)c34)cc2F)cc1 [Example 4, 1-[4-(4-Amino-1-methyl-1H-pyrazolo[3,4-d]pyrimidin-3-yl)-2-fluoro-phenyl]-3-(5-tert-butyl-2-p-tolyl-2H-pyrazol-3-yl)-urea]
[1]
  IC50: < 100 nM
[2]
  IC50: < 100 nM
[3]
  IC50: < 100 nM

## CC(C)c1ccc(-n2nc(C(C)(C)C)cc2NC(=O)Nc2ccc(-c3nn(C)c4ncnc(N)c34)c(F)c2)cc1 [Example 3, 1-[4-(4-Amino-1-methyl-1H-pyrazolo[3,4-d]pyrimidin-3-yl)-3-fluoro-phenyl]-3-[5-tert-butyl-2-(4-isopropyl-phenyl)-2H-pyrazol-3-yl]-urea]
[1]
  IC50: < 100 nM
[2]
  IC50: 100 to 1000 nM
[3]
  IC50: < 100 nM

## CC(C)c1ccc(-n2nc(C(C)(C)C)cc2NC(=O)Cc2ccc(-c3nn(C)c4ncnc(N)c34)cc2F)cc1 [Example 16, 2-[4-(4-Amino-1-methyl-1H-pyrazolo[3,4-d]pyrimidin-3-yl)-2-fluoro-phenyl]-N-[5-tert-butyl-2-(4-isopropyl-phenyl)-2H-pyrazol-3-yl]-acetamide]
[1]
  IC50: < 100 nM
[2]
  IC50: 100 to 1000 nM
[3]
  IC50: 1000 to 5000 nM

## Cn1nc(-c2ccc(NC(=O)Nc3cc(C(C)(C)C)nn3-c3ccc(C#N)cc3)c(Cl)c2)c2c(N)ncnc21 [Example 28, 1-(4-{4-amino-1-methyl-1H-pyrazolo[3,4-d]pyrimidin-3-yl}-2-chlorophenyl)-3-[3-tert-butyl-1-(4-cyanophenyl)-1H-pyrazol-5-yl]urea]
[1]
  IC50: < 100 nM
[2]
  IC50: 100 to 1000 nM

## Cc1ccc(-n2nc(C(C)(C)C)cc2NC(=O)NC2CC=C(c3cn(C)c4ncnc(N)c34)CC2)cc1 (stereo not drawn) [Example 25, 1-[4-(4-Amino-7-methyl-7H-pyrrolo[2,3-d]pyrimidin-5-yl)-cyclohex-3-enyl]-3-(5-tert-butyl-2-p-tolyl-2H-pyrazol-3-yl)-urea]
[1]
  IC50: < 100 nM
[2]
  IC50: < 100 nM
